Experimental data reported in publication PMC6105827, “Antitrypanosomal 8-Hydroxy-Naphthyridines Are Chelators of Divalent Transition Metals” (Antimicrobial Agents and Chemotherapy, 2018).
Like-named read-outs stand apart in the source and are kept apart here. One block for each compound: values may come before it.

Key:
[1] = tested on: T. brucei bloodstream forms; experiment: microbe, parasite or virus in culture
Procedure: (§1) The clonal Leishmania donovani cell line LdBOB (derived from MHOM/SD/62/1S-CL2D) was grown as promastigotes at 28°C, as described previously ([53]). Bloodstream-form T. brucei MiTat 1.2 clone 221a and its derived subline, 2T1, were cultured at 37°C in the presence of 5% CO2 in HMI9-T medium, as described previously ([54]). The human carcinoma HepG2 cell line was grown at 37°C with 5% CO2 in minimal Eagle's medium (MEM) with GlutaMAX (1×; Sigma-Aldrich), nonessential amino acids (Sigma-Aldrich), and 10% FBS. Human HepG2 and THP-1 cells used in this study were ethically sourced from the ATCC.
(§2) L. donovani intramacrophage ([7]), HepG2 ([55]), T. brucei ([56]), and L. donovani promastigote ([57]) compound sensitivity assays were carried out as described previously. Human HepG2 and THP-1 cells used in these assays were provided by the ATCC. Data were processed by using GRAFIT (version 5.0.4; Erithacus Software) and fitted to a 2-parameter equation to obtain the effective concentration inhibiting growth by 50% (EC50). Data are presented as the means of results from at least two independent experiments.
(§3) In the first instance, the maximum tolerated concentrations of ZnCl2, CaCl2, CuCl2, MgCl2, MnCl2, and FeCl2 were determined for each cell type. […] Standard drug sensitivity assays were carried out (as described above) for each cell type with compounds 1, 2, and 3 in the presence and absence of the maximum tolerated concentration of metal salt.

[2] = Cell-free fluorescence-based (FluoZin-3 salt) zinc binding assay; conditions: compounds and DFMO 1 to 100 μM; TPEN 10 μM
Procedure: ZnCl2 (5 μM) was incubated with various concentrations of our three 8-HNT compounds followed by the addition of 125 nM FluoZin-3 salt dye. Reaction mixtures were preincubated for 20 min at RT and then aliquoted into a black 96-well plate. Fluorescence was then measured with a Pherastar spectrophotometer (excitation at 485 nm and emission at 520 nm). Calculations were carried out in Excel.

[3] = tested on: L. donovani promastigotes; experiment: Intracellular Zn2+ measurement with FluoZin-3 in L. donovani; format: cell-based, Leishmania donovani; conditions: 8-HNT compounds 5 μM, TPEN 8 μM
Procedure: (§4) L. donovani promastigotes were grown to 2 × 10^7 cells ml^−1 and harvested by centrifugation (10 min at 1,600 × g). T. brucei bloodstream forms were grown to 2 × 10^6 cells ml^−1 and harvested by centrifugation (5 min at 800 × g). Parasites were washed with PBS and resuspended to a final concentration of 2.5 × 10^7 parasites ml^−1 in fresh PBS. Cells were incubated with FluoZin-3 (final concentration, 5 μM), pluronic acid (final concentration, 5 μM), and 14 mM glucose (T. brucei only). Parasites were incubated for 60 min at room temperature (RT), washed three times with PBS, and then resuspended in PBS (with 14 mM glucose for T. brucei only) before being aliquoted into a black, clear-bottomed 96-well plate (final concentration of 2.5 × 10^7 cells ml^−1). 8-HNT or control compounds were added directly to cells, and fluorescence was measured immediately by using a Pherastar fluorescence spectrophotometer (excitation at 485 nm and emission at 520 nm). Calculations were performed in Excel. […] Parasites were confirmed to be viable by microscopy after the completion of the experiment.

[4] = tested on: L. donovani; conditions: cited from earlier work
[5] = tested on: T. brucei bloodstream forms; experiment: Intracellular Zn2+ measurement with FluoZin-3 in T. brucei; format: cell-based, Trypanosoma brucei; conditions: 8-HNT compounds 5 μM, TPEN 8 μM
Procedure: as §4

[6] = tested on: HepG2 cells; experiment: HepG2 compound sensitivity assay (with/without ZnCl2); conditions: for EC50: Homo sapiens
Procedure: as §1, §2, §3

[7] = tested on: THP-1 cells; experiment: THP-1 cell sensitivity; format: cell-based; conditions: Homo sapiens
Procedure: as §2

[8] = Spectrophotometric UV-Vis titration and Job's plot of binding to divalent cations; format: physicochemical; conditions: combined concentration 200 μM in methanol; absorbance 475/390/375 nm
Procedure: UV-visible (UV-Vis) titrations were carried out essentially as described previously ([65], [66]). Aliquots of metal divalent cations (concentrated stocks were made initially in water and then diluted in methanol) were added to a fixed concentration of 50 μM 8-HNT compound in methanol. After each aliquot addition, the incubation mixture was left to stabilize for 5 min at 25°C prior to scanning. Wavelength scanning was carried out at between 260 and 510 nm by using a UV-2401 PC UV-Vis spectrophotometer (Shimadzu). For Job's plot analyses ([66]), the combined concentration of 8-HNT and cation was fixed at 200 μM, and only the molar ratio of cation versus 8-HNT compound varied. Changes of the absorption at 475, 390, and 375 nm were indicative of cation complex formation with compounds 1 to 3, respectively. Specific absorbance at these wavelengths was determined and plotted against the molar ratio of compound to cation to determine complex stoichiometry ([66]).

[9] = tested on: L. donovani promastigotes; experiment: L. donovani promastigote compound sensitivity assay (with/without metal salts); conditions: for EC50: Leishmania donovani; for Shift: promastigotes; for Tolerated concentration of exogenous metal salt: L. donovani promastigotes
Procedure: as §1, §2, §3

[10] = tested on: L. donovani intramacrophage amastigotes; experiment: L. donovani intramacrophage compound sensitivity assay; format: cell-based; conditions: Leishmania donovani; L. donovani intramacrophage amastigotes; ≥3 independent replicates; read-out: Intra-macrophage EC50
Procedure: as §2

[11] = tested on: L. major; design: method as in PMID 7768775; conditions: cited from earlier work
[12] = tested on: T. brucei; design: method as in PMID 11849643; conditions: cited from earlier work
[13] = tested on: L. donovani promastigotes; experiment: Generation of an 8-HNT-resistant L. donovani cell line; format: cell-based, Leishmania donovani
Procedure: Resistant lines were generated as described previously ([31]), using compound 2 in L. donovani promastigotes. Starting at a sublethal concentration of 1 μM compound 2 in 3 independent cultures, concentrations were increased in a stepwise manner. However, after a total of 270 days in culture, promastigotes were unable to grow in ≥10 μM compound 2.

[14] = read-out: EC50 values, WT, promastigotes, absence of cation, FeCl2 experiment
[15] = read-out: EC50 values, WT, promastigotes, absence of cation, ZnCl2 experiment
[16] = read-out: L. donovani pro EC50, promastigotes (Fig. 1)
[17] = Trypanosoma brucei, read-out: Mean EC50 ± SD, Plus cation, plus CaCl2 (3 mM)
[18] = Trypanosoma brucei, read-out: Mean EC50 ± SD, Plus cation, plus CuCl2 (5 μM)
[19] = Trypanosoma brucei, read-out: Mean EC50 ± SD, Plus cation, plus MgCl2 (1 mM)
[20] = Trypanosoma brucei, read-out: Mean EC50 ± SD, Plus cation, plus MnCl2 (10 μM)
[21] = Trypanosoma brucei, read-out: Mean EC50 ± SD, WT, absence of cation, CaCl2 experiment
[22] = Trypanosoma brucei, read-out: Mean EC50 ± SD, WT, absence of cation, CuCl2 experiment
[23] = Trypanosoma brucei, read-out: Mean EC50 ± SD, WT, absence of cation, FeCl2 experiment
[24] = Trypanosoma brucei, read-out: Mean EC50 ± SD, WT, absence of cation, MgCl2 experiment
[25] = Trypanosoma brucei, read-out: Mean EC50 ± SD, WT, absence of cation, MnCl2 experiment
[26] = Trypanosoma brucei, read-out: Mean EC50 ± SD, WT, absence of cation, ZnCl2 experiment
[27] = Trypanosoma brucei, read-out: T. brucei bsf EC50, bloodstream form (Fig. 1)
[28] = read-out: EC50 against bloodstream-form T. brucei, substance alone (Fig. S2), mean ± SEM

Compound: [Cl][Mn][Cl] [MnCl2]
Maximum concentration of metal salt having a minimal impact on cell growth ([1]; T. brucei): 10 µM

Compound: [Cl][Cu][Cl] [CuCl2]
Maximum concentration of metal salt having a minimal impact on cell growth ([1]; T. brucei): 5 µM

Compound: c1ccc(CN(CCN(Cc2ccccn2)Cc2ccccn2)Cc2ccccn2)nc1 [TPEN, N,N,N′,N′-tetrakis(2-pyridylmethyl)ethane-1,2-diamine]
Cell-free FluoZin-3 fluorescence (competition for Zn^2+ binding) [2]: reduction in the level of fluorescence
Intracellular zinc level (FluoZin-3 fluorescence) [3]: decrease in fluorescence
Inhibition of L. donovani in vitro [4]: inhibit
Intracellular zinc level (FluoZin-3 fluorescence) [5]: decrease in fluorescence
EC50 ([1]; Trypanosoma brucei, read-out: EC50 against bloodstream-form T. brucei, substance alone (Fig. S2), mean ± SEM): 4100 ± 900 nM

EC50 ([6]; HepG2, read-out: HepG2 EC50): 16100 nM
EC50 [7]: > 16000 nM
Job's plot intercept, molar fraction (compound to Zn^2+) [8]: 0.35
EC50 [9, 14]: 100 ± 4 nM
EC50 [9, 15]: 200 ± 10 nM
EC50 [9, 16]: 220 nM
EC50 [10]: 200 nM
Compound: CC(NC(=O)c1ncc2cccnc2c1O)c1ccc(F)cc1 (stereo not drawn) [Compound 3]
Shift ([9]; FeCl2 (100 μM) vs WT): 1.9 fold
Shift ([9]; ZnCl2 (100 μM) vs WT): 120.1 fold
Shift (fold) ([1]; CaCl2 (3 mM) vs WT): 0.9 fold
Shift (fold) ([1]; CuCl2 (5 μM) vs WT): 1.1 fold
Shift (fold) ([1]; FeCl2 (10 μM) vs WT): 3.7 fold
Shift (fold) ([1]; MgCl2 (1 mM) vs WT): 0.9 fold
Shift (fold) ([1]; MnCl2 (10 μM) vs WT): 1.3 fold
EC50 [1, 17]: 700 ± 40 nM
EC50 [1, 18]: 800 ± 60 nM
EC50 [1, 19]: 700 ± 50 nM
EC50 [1, 20]: 1010 ± 40 nM
EC50 [1, 21]: 800 ± 100 nM
EC50 [1, 22]: 800 ± 50 nM
EC50 [1, 23]: 900 ± 30 nM
EC50 [1, 24]: 800 ± 50 nM
EC50 [1, 25]: 800 ± 50 nM
EC50 [1, 26]: 500 ± 30 nM
EC50 [1, 27]: 520 nM
Shift (fold) ([1]; ZnCl2 (200 μM) vs WT): 12.0 fold

Compound: [Cl-].[Cl-].[Zn+2] [ZnCl2]
Tolerated concentration of exogenous metal salt ([6]; HepG2 cells): 100 µM
Tolerated concentration of exogenous metal salt [9]: 100 µM
Maximum concentration of metal salt having a minimal impact on cell growth [1]: 200 µM
EC50 [1, 28]: 619000 ± 12600 nM

Compound: [Ca+2].[Cl-].[Cl-] [CaCl2]
Maximum concentration of metal salt having a minimal impact on cell growth ([1]; T. brucei): 3000 µM

Compound: NCCCC(N)(C(=O)O)C(F)F (stereo not drawn) [DFMO, difluoromethylornithine, reference compound]
Cell-free FluoZin-3 fluorescence (competition for Zn^2+ binding) [2]: did not affect the fluorescence levels
Effect of exogenous divalent cations, including Fe^2+ and Zn^2+, on potency against T. brucei ([1]; control): failed to alter the potency
EC50 [1, 28]: 39500 ± 900 nM

EC50 [1, 28]: 16800 ± 1400 nM
Compound: [Cl][Fe][Cl] [FeCl2]
Tolerated concentration of exogenous metal salt [9]: 100 µM
Maximum concentration of metal salt having a minimal impact on cell growth [1]: 10 µM

Compound: [Cl-].[Cl-].[Mg+2] [MgCl2]
Maximum concentration of metal salt having a minimal impact on cell growth ([1]; T. brucei): 1000 µM

Compound: CC(=O)N(O)CCCCCNC(=O)CCC(=O)N(O)CCCCCNC(=O)CCC(=O)N(O)CCCCCN [deferoxamine]
Growth inhibition of L. major in vitro [11]: inhibits the growth
Growth inhibition of L. donovani in vitro [4]: inhibit the growth
Growth inhibition of T. brucei in vitro [12]: inhibit the growth

Compound: COc1ccccc1-c1nc(-c2nc(C)n[nH]2)c(O)c2ncccc12 [Compound 2]
Shift of EC50 for HepG2 cells by ZnCl2 ([6]; 100 μM ZnCl2): 7 fold
EC50 ([6]; HepG2, read-out: EC50 for HepG2 cells, absence of exogenous ZnCl2): 47800 ± 3600 nM
EC50 ([6]; HepG2, read-out: HepG2 EC50): 15900 nM
EC50 [7]: > 50000 nM
Concentration in which promastigotes were unable to grow ([13]; after 270 days in culture, start 1 μM): ≥ 10 µM
Development of resistance in L. donovani promastigotes ([13]; stepwise increasing concentrations over a 9-month period): could not develop any resistance
Job's plot intercept, molar fraction (compound to Zn^2+) [8]: 0.31
EC50 [9, 14]: 100 ± 10 nM
EC50 [9, 15]: 200 ± 40 nM
EC50 [9, 16]: 180 nM
Shift ([9]; FeCl2 (100 μM) vs WT): 6.8 fold
Shift ([9]; ZnCl2 (100 μM) vs WT): 265.7 fold
EC50 [10]: 600 nM
Shift (fold) ([1]; CaCl2 (3 mM) vs WT): 1.0 fold
Shift (fold) ([1]; CuCl2 (5 μM) vs WT): 0.9 fold
Shift (fold) ([1]; FeCl2 (10 μM) vs WT): 2.4 fold
Shift (fold) ([1]; MgCl2 (1 mM) vs WT): 1.1 fold
Shift (fold) ([1]; MnCl2 (10 μM) vs WT): 0.8 fold
EC50 [1, 17]: 1300 ± 60 nM
EC50 [1, 18]: 1300 ± 60 nM
EC50 [1, 19]: 900 ± 20 nM
EC50 [1, 20]: 1200 ± 50 nM
EC50 [1, 21]: 1200 ± 40 nM
EC50 [1, 22]: 1400 ± 70 nM
EC50 [1, 23]: 700 ± 60 nM
EC50 [1, 24]: 800 ± 50 nM
EC50 [1, 25]: 1400 ± 90 nM
EC50 [1, 26]: 800 ± 50 nM
EC50 [1, 27]: 790 nM
Shift (fold) ([1]; ZnCl2 (200 μM) vs WT): 19.7 fold
